Experimental data: patent publication US10738041B2, “Ferroportin inhibitors” (Vifor (International) AG, priority 2015, dated 2020)
Read-outs that look alike come from different tables or passages of the source.

How the values were obtained:
[1] = target: T1, ferroportin (Fpn) (Mus musculus, UniProt Q9JHI9); experiment: Hepcidin Internalization Assay (J774); assay type: cell-based; conditions: average of multiple measurements; inhibition of TMR-hepcidin (25 nM) internalization into J774 cells; read-out: J774 IC50
T1 construct: host or cells: J774 mouse macrophage cell line, Fe(III)-NTA induced
T1 sequence (Q9JHI9 1-570): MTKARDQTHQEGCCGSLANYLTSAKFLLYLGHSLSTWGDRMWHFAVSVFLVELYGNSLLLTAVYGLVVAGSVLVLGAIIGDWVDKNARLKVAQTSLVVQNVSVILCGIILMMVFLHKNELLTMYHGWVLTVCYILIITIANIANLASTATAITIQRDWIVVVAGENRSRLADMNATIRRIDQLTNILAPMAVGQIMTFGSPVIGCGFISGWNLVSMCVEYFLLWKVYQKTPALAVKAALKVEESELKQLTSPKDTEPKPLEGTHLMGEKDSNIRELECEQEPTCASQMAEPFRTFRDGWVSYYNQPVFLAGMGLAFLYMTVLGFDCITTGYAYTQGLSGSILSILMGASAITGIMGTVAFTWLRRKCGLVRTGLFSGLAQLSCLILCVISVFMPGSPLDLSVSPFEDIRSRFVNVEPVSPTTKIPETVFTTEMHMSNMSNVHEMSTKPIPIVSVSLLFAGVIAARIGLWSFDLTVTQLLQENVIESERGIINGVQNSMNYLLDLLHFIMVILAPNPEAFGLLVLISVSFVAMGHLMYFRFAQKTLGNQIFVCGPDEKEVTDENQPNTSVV
Outline: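 Inhibition of fluorescent TMR-hepcidin uptake via ferroportin was imaged in fixed J774 cells after a 2 h, 37 °C co-incubation with compound dilutions; cells were pre-cultured overnight with 200 μM Fe(III)NTA. Internalized TMR signal per cell (Sum(Mean)) was fitted as log(inhibitor) vs. response for IC50, in triplicate.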

[2] = tested on: naïve WT C57BL/6 mice; experiment: Hypoferremia in naïve mice; assay type: in vivo, mouse; conditions: Mus musculus, po, 3 h, read-out: Serum Iron Reduction at 3 h (%)
Method: Female C57BL/6 mice (Janvier, France) at age of 9 weeks were fed a standard diet (Harlan Provimi Kliba 3436) and treated per os (p.o.) with compounds or the corresponding amount of vehicle at a volume of 10 ml/kg body weight. Fpn inhibitors were formulated in 0.5% methylcellulose/water or 20% cremophor EL/water and dosed p.o. in mice at 10, 30 or 100 mg/kg body weight. Three hours later, mice were pre terminally anesthetized in isoflurane chambers and blood was collected by retro-orbital bleeding. Mice were sacrificed by cervical dislocation and spleens, livers and duodena were harvested and used for biomarker analysis. All experiments have been conducted in compliance with the license approved by the responsible veterinarian authorities. Serum was isolated by centrifugation of blood into gel-containing microtainers and serum iron was determined by the MULTIGENT Iron assay (Abbott Diagnostics, 6K95). Eight mice per group were used and one-way ANOVA with Bonferroni's multiple comparison test was performed to analyze the statistical differences between the experimental groups.

[3] = target: T2, human Fpn (Homo sapiens, UniProt Q9NP59); experiment: Biophysical Ferroportin-Hepcidin Binding Assay (fluorescence polarization); conditions: average of multiple measurements; 1 μM human Fpn, 20 nM TMR-hepcidin; read-out: FP IC50
T2 construct: FLAG (C); made in house; host or cells: Pichia pastoris
T2 sequence (Q9NP59 1-571): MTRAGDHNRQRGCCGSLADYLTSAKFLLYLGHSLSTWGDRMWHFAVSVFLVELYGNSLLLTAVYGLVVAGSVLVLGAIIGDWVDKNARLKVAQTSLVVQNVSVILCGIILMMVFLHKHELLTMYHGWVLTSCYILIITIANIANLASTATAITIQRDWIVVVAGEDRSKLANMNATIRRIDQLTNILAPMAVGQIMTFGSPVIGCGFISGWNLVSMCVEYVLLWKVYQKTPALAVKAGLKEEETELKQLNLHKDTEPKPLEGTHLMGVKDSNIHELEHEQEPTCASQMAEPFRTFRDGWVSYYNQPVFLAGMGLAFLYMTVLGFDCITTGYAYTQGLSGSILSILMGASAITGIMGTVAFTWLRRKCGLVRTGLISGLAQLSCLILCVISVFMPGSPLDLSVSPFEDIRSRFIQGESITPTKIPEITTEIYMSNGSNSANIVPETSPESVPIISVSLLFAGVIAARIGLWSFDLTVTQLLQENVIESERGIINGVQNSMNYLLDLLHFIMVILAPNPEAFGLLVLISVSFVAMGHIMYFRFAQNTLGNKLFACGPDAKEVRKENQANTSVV
Outline: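 FP readout: a dose-dependent drop in TMR-hepcidin polarization (mP, from parallel and perpendicular emission) marked blocked binding to FLAG-tagged human Fpn purified from Pichia pastoris. Final levels were 1 μM Fpn and 20 nM TMR-hepcidin, with compound dilutions in duplicate, incubated 90 min at room temperature.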

[4] = target: T3, human Fpn-GFP fusion (Homo sapiens, UniProt Q9NP59); experiment: Inhibition of ferroportin mediated iron export activity in an iron response assay (BLAzer); assay type: cell-based; conditions: average of multiple measurements; HEK-293 cell line #354; read-out: BLAzer EC50
T3 construct: expressed in transfected cells; host or cells: HEK-293 cell line #354 (derivative of HEK-293 Tet-ON Advanced, Clontech)
T3 sequence (Q9NP59 1-571): T2 sequence (Q9NP59 1-571)
Description: Intracellular iron levels are indirectly measured in this assay by monitoring the activity of a beta-lactamase (BLA) reporter gene fused to the human ferritin promoter and the associated iron regulatory element (IRE) contained within the 5′ untranslated region of the ferritin mRNA. Expression of ferroportin (Fpn) in such a cell line leads to iron efflux and lower iron levels as reflected by lower activity of the reporter gene. On the other hand, inhibition of Fpn-mediated iron efflux results in elevated cellular iron levels which is detected as increased reporter gene activity. Small molecular weight Fpn inhibitor compounds were tested for dose-dependent effects in this in vitro iron response assay as described below.
The HEK-293 cell line #354 was generated by stable integration of (i) a human Fpn-GFP fusion construct inserted in a derivative of the doxycycline-inducible pTRE-Tight-BI plasmid (Clontech, Cat. 631068) and (ii) a human ferritin promoter-BLA reporter gene into a derivative of the HEK-293 Tet-ON Advanced cell line (Clontech). […] After overnight incubation, 10 μl/well of dilution series of the test compounds were added in quadruplicates and plates were further incubated overnight at 37° C. with 5% CQ. Cells were washed 3 times with HBSS leaving 25 μl per well. BLA activity was detected by adding 5 μl/well of the GeneBlazer reagent CCF4-AM (Invitrogen, Cat. K1085) to the cells. After incubation of the plates in the dark at 18° C. for 60 min., blue and green fluorescence signals were measured in a Safre2 fluorescence plate reader (Tecan) with excitation at 410 nm and emissions at 458 nm (blue) and 522 nm (green). The ratio of blue/green fluorescence as a measure for BLA activity was calculated and EC50 values were determined with the calculated blue/green fluorescence ratios as described for the hepcidin internalization assay.

[5] = Dose 10 mg/kg p.o., naïve WT C57BL/6 mice, relative to vehicle
[6] = Dose 30 mg/kg p.o., naïve WT C57BL/6 mice, relative to vehicle
[7] = Dose 100 mg/kg p.o., naïve WT C57BL/6 mice, relative to vehicle

| SMILES | IC50 [1] [nM] | inhibition in vivo at 10 mg/kg [2, 5] [%] | inhibition in vivo at 30 mg/kg [2, 6] [%] | inhibition in vivo at 100 mg/kg [2, 7] [%] | IC50 [3] [nM] | EC50 [4] [nM] | inhibition in vivo at 10 mg/kg [2] [%] | inhibition in vivo at 30 mg/kg [2] [%] | inhibition in vivo at 100 mg/kg [2] [%] |
| --- | --- | --- | --- | --- | --- | --- | --- | --- | --- |
| O=C(NCc1ccccc1)c1csc(CCNCc2ccncn2)n1 [Example 27] | 38400 | 20 | 30 | 45 | – | – | – | – | – |
| O=C(NCc1ccccn1)c1csc(CCNCCc2nc3ccccc3[nH]2)n1 [Example 58] | 10 | 20 | 30 | 40 | – | – | – | – | – |
| O=C(NCc1ncc(C(F)(F)F)cc1Cl)c1csc(CCNCc2nc3ccccc3[nH]2)n1 [Example 101] | 280 | – | – | – | 315 | 2920 | – | – | – |
| O=C(NCc1ncc(F)cc1Cl)c1csc(CCNCc2nc3ccccc3[nH]2)n1 [Example 102] | 58 | – | – | – | 258 | 1850 | – | – | – |
| Cc1cc(C)c(CNC(=O)c2csc(CCNCc3nc4ccccc4[nH]3)n2)cn1 [Example 105] | 77 | – | – | – | 420 | 2630 | – | – | – |
| O=C(c1csc(CCNCc2nc3ccccc3[nH]2)n1)N1CCc2ncccc2C1 [Example 107] | 1320 | – | – | – | 5740 | 21000 | – | – | – |
| O=C(NCc1ncc(F)cc1F)c1csc(CCNCc2nc3ccccc3[nH]2)n1 [Example 108] | 130 | – | – | – | 478 | 4120 | – | – | – |
| O=C(NCc1ncccc1Cl)c1nc(CCNCc2nc3ccccc3[nH]2)sc1Cl [Example 159] | 91 | 4 | 26 | 60 | – | – | – | – | – |
| O=C(NCc1ncccc1Cl)c1ncn(CCNCc2nc3ccccc3[nH]2)n1 [Example 170] | 482 | – | – | – | 280 | 3960 | – | – | – |
| O=C(NCc1ccccn1)c1coc(CCNCCc2nc3ccccc3[nH]2)n1 [Example 171] | 26 | 10 | 42 | 61 | – | – | – | – | – |
| O=C(NCc1ncccc1F)c1csc(C2CN(CCc3nc4ccccc4[nH]3)C2)n1 [Example 193] | 287 | 13 | 11 | 31 | – | – | – | – | – |
| O=C(CCNCCc1nc2ccccc2[nH]1)NCC(=O)NCc1ncccc1F [compound 190] | 740 | – | – | – | 660 | 27300 | – | – | – |
| O=C(NCCCCNCc1nc2ccccc2[nH]1)NCc1ncccc1F [compound 197] | 610 | – | – | – | 550 | 18100 | – | – | – |
| O=C(NCc1ncccc1F)N1CCCC(CCNCCc2nc3ccccc3[nH]2)C1 (centres unmarked) [compound 200] | 3140 | – | – | – | 5650 | 45100 | – | – | – |
| O=C(CNC(=O)C1CN(CCc2nc3ccccc3[nH]2)C1)NCc1ncccc1F [compound 201] | 1930 | – | – | – | 790 | 39400 | – | – | – |
| O=C(NCc1ncccc1F)c1cncc(CCNCc2nc3ccccc3[nH]2)c1 [compound 221] | 360 | – | – | – | 147 | 16900 | – | – | – |
| O=C(NCc1ncccc1F)c1cc(CCNCc2nc3ccccc3[nH]2)ccn1 [compound 232] | 1900 | – | – | – | 267 | 12000 | – | – | – |
| O=C(NCc1ncccc1F)c1cncc(CCNCCc2nc3cc(F)ccc3[nH]2)c1 [compound 245] | 188 | – | – | – | 295 | 6140 | – | – | – |
| O=C(NCc1ncccc1F)c1cncc(CCNCCc2nc3c(F)cccc3[nH]2)c1 [compound 246] | 276 | – | – | – | 263 | 12900 | – | – | – |
| O=C(NCc1ncccc1F)c1cncc(C2CN(CCc3nc4c(F)cccc4[nH]3)C2)c1 [compound 248] | 363 | – | – | – | 306 | 6340 | – | – | – |
| O=C(NCc1ncccc1F)c1cn(CCNCCc2nc3ccccc3[nH]2)nn1 [compound 277] | – | – | – | – | – | – | 6 | 21 | 54 |
